# Data published in patent US7585851B2, “3′-prodrugs of 2′-deoxy-β-L-nucleosides” (priority 2000, dated 2009).
# Values joined by “and” are separate entries in the source; they are usually repeats but may differ in a detail not shown here. Equal values may be shown once. Where a name gives a salt, the structure may show the parent alone. Read-outs that look alike come from different tables or passages of the source.
# What was measured:
# [1] = monkey, in vivo, po
# [2] = Solubility study in water (HPLC); conditions: for Solubility (g/L) / Solubility (mol/L): in water
# [3] = Bioavailability of the prodrugs of L-dC in monkeys, with and without L-dT; conditions: for % BA (bioavailability of L-dC): estimated relative to AUC of L-dC (oral dose)
# [4] = Day 25, analyte = label
# [5] = for Tlast: analyte = label
# [6] = system: cytosolic extracts of HepG2 cells; assay: Steady state phosphorylation kinetics in HepG2 cytosolic extracts; type: biochemical, human
# [7] = Mitochondrial toxicity assay in HepG2 cells; type: cell-based, human; conditions: human
# HepG2 cells [8] = assay: Mitochondrial toxicity assay in HepG2 cells; type: cell-based, human; conditions: human
# [9] = molecular target: virion-associated DNA polymerase of WHV (Woodchuck hepatitis B virus, UniProt P03160); assay: biochemical
# human DNA polymerase β [10] = molecular target: T1, human DNA polymerase β (Homo sapiens, UniProt P06746); conditions: from Chang, et al. / Yao, read-out: IC50 Human DNA pol β; cited from earlier work
# human DNA polymerase γ [11] = molecular target: T2, human DNA polymerase γ (Homo sapiens, UniProt P54098); conditions: from Chang, et al. / Yao; cited from earlier work
# T2 sequence (P54098 1-1239): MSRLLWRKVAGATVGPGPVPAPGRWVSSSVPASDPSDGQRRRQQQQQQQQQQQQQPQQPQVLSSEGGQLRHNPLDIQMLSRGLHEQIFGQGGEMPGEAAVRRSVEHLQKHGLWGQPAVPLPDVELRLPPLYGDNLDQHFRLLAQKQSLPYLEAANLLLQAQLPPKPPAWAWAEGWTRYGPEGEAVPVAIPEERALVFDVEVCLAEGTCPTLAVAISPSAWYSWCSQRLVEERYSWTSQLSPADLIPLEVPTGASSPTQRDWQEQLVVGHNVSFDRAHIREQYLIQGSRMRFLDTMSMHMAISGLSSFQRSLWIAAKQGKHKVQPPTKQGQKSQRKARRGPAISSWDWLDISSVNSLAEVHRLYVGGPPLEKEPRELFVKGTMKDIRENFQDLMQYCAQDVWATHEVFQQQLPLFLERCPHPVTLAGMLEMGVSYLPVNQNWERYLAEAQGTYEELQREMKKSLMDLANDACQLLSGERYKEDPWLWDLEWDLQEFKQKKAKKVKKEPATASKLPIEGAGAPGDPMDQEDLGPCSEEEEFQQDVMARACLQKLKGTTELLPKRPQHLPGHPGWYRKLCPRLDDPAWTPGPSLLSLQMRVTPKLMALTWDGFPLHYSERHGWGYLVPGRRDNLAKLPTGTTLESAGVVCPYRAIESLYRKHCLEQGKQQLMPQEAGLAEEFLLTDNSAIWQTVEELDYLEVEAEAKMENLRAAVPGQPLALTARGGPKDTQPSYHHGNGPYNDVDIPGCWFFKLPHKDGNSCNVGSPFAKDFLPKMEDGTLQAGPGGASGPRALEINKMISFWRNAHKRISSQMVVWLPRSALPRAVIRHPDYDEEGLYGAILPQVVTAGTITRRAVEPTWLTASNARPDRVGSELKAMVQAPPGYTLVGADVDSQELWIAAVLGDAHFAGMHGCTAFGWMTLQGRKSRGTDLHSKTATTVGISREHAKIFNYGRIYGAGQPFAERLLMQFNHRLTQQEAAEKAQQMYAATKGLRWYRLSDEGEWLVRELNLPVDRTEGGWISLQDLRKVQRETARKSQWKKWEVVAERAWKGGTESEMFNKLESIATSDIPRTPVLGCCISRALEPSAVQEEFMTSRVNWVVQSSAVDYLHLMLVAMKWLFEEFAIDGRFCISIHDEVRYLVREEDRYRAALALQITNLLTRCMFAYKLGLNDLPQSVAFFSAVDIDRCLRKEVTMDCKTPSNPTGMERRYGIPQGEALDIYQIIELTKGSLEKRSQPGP
# human DNA polymerase β [12] = molecular target: T1, human DNA polymerase β; type: biochemical; conditions: highest concentration tested 100 μM; read-out: IC50 Human DNA pol β
# Text: (§1) Nucleosides and nucleoside analogs are usually metabolized within cells to their TP derivatives. Cellular DNA polymerases are routinely responsible for normal nuclear and mitochondrial DNA synthesis and repair. Because the TP metabolites are potential substrates for DNA polymerases, studies were undertaken to determine if L-dC-TP inhibited human DNA polymerases.
# human DNA polymerase γ [13] = molecular target: T2, human DNA polymerase γ; type: biochemical; conditions: highest concentration tested 100 μM
# Text: as §1
# HepG2 cells [14] = conditions: human
# in vitro = conditions: human
# [15] = Single dose bioavailability of dival-L-dC (IV and oral) in cynomologus monkey; type: in vivo, cynomologus monkey (macaca fascicularis); conditions: oral dival-L-dC; analyte = label
# Text: The drug was quantitated in plasma and urine with a liquid chromatography-mass spectrometry (LC-MS) technique.
# [16] = system: primary human hepatocytes; conditions: 24 h, 10 μM
# [17] = system: human erythroid burst-forming (BFU-E) progenitor cells; type: cell-based; conditions: human bone marrow clonogenic assay
# Text: (§2) In particular, anemia and neutropenia are the most common drug-related clinical toxicities associated with the anti-HIV drug zidovudine (ZDV).
# [18] = system: human granulocyte-macrophage colony-forming (CFU-GM) progenitor cells; type: cell-based; conditions: human bone marrow clonogenic assay
# Text: as §2
# [19] = octanol-1 / MilliQ water pH 6.5; Study 1, Study 2; listed as L-dC-3′,5′-divalinyl ester hydrochloride
# Description: (§3) To 1 mL of this solution, 1 mL of octanol-1 (B) saturated with MilliQ water (A′) was added.
# as §3
# [20] = Oral bioavailability of L-dC via dival-L-dC in cynomologus monkey (HPLC study)
# Text: The drug was quantitated in plasma and in urine using HPLC analysis.
# [21] = Escalating oral dose toxicity of dival-L-dC in monkeys; type: in vivo, cynomologus monkey
# Text: […]. […] Clinical observations were documented daily. Blood samples for hematology and serum chemistries were collected and body weight measured before treatment on Days 1, 4, 7, 10, and 14, and before necropsy on Day 17. After completion of Day 17 evaluations, all animals were euthanized and a complete necropsy performed, including macroscopic examination and comprehensive tissue collection.
# [22] = human
# [23] = Log P study, octanol-1/phosphate buffer pH 7.2
# [24] = endogenous polymerase assay, read-out: IC50 Viral DNA pol (WHV DNA polymerase)
# Chain of virion-associated DNA polymerase of WHV (P03160 whole entry): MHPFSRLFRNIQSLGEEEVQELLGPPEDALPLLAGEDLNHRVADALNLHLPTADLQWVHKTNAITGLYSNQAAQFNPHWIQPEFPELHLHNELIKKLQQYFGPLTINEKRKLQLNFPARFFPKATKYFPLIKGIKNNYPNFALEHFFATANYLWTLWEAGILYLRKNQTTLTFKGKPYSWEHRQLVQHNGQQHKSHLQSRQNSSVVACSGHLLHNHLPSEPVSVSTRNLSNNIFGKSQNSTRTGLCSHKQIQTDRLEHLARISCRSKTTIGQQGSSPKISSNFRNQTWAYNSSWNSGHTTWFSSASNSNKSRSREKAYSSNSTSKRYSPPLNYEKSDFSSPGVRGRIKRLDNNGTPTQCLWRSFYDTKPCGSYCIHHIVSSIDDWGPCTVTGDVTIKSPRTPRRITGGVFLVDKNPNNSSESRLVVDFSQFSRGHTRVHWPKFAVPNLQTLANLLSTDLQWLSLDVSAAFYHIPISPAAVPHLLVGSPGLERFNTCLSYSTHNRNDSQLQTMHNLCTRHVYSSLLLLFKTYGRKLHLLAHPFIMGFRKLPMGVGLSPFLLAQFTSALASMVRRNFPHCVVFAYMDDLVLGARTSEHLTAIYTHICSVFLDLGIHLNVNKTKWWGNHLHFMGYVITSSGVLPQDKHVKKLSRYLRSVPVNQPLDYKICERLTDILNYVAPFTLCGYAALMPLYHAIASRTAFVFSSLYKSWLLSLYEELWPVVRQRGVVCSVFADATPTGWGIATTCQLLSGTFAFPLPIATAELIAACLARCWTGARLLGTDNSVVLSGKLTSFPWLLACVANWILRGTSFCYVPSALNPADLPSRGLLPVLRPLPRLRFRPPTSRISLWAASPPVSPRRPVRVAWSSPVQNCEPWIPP
compound,measurement,setting,value
"CC(=O)OC[C@@H]1O[C@H](n2ccc(N)nc2=O)C[C@H]1OC(C)=O [3′5′-diacetyl-L-dC, 3′,5′-Di-O-acetyl-2′-deoxy-β-L-cytidine]",% BA (bioavailability of L-dC),[1],23.0 ± 6.5%
"CC(C)[C@H](N)C(=O)O[C@@H]1C[C@@H](n2ccc(N)nc2=O)O[C@H]1CO [3′-val-L-dC, 3′-L-valine ester of 2′-deoxy-β-L-cytidine]",Solubility (g/L),[2],>408 g/L
same,Solubility (g/L),[2]; listed as 3′-valinyl ester hydrochloride of β-L-dC,> 408 g/L
same,"Concentration of solution of the maximum quantity available, single samples","[2]; water, saturation not obtained, 3 samples, listed as 3′-valinyl ester hydrochloride of β-L-dC",1.013 mol/L and 0.996 mol/L and 1.059 mol/L
same,% BA (bioavailability of L-dC),[3]; oral,85.1 ± 24.5%
"CC(C)[C@H](N)C(=O)OC[C@@H]1O[C@H](n2ccc(N)nc2=O)C[C@H]1O [5′-val-L-dC, 5′-L-valine ester of 2′-deoxy-β-L-cytidine hydrochloride]",Tlast (median),"[4]; dival-L-dC 1000 mg/kg/day oral, F",4 h
same,Tlast (median),"[4]; dival-L-dC 1000 mg/kg/day oral, M",5 h
same,Tlast (median),"[4]; dival-L-dC 2000 mg/kg/day oral, F",8 h
same,Tlast,"[5]; dival-L-dC 1000 mg/kg/day oral, Day 1, F",4 h
same,Tlast,"[5]; dival-L-dC 1000 mg/kg/day oral, Day 1, M",4 h
same,Tlast,"[5]; dival-L-dC 1000 mg/kg/day oral, Day 28, F",4 h
same,Tlast,"[5]; dival-L-dC 1000 mg/kg/day oral, Day 28, M",8 h
same,Tlast,"[5]; dival-L-dC 2000 mg/kg/day oral, Day 1, F",8 h
same,Tlast,"[5]; dival-L-dC 2000 mg/kg/day oral, Day 1, M",8 h
same,Tlast,"[5]; dival-L-dC 2000 mg/kg/day oral, Day 28, F",24 h
same,Tlast,"[5]; dival-L-dC 2000 mg/kg/day oral, Day 28, M",8 h
same,% BA (bioavailability of L-dC),[3]; oral,39.0 ± 11.4%
"Nc1ccn([C@H]2C[C@H](O)[C@@H](CO)O2)c(=O)n1 [D-dC, D-Deoxycytidine, reference compound]",Vmax of phosphorylation,[6],2.15 nmol/min/mg protein
same,Solubility (g/L),[2],272 g/L
same,Solubility (mol/L),[2],1.03 mol/L
"O=c1[nH]c(=O)n([C@@H]2O[C@H](CO)[C@@H](O)[C@@H]2F)cc1I [FIAU, fialuridine, reference compound]",CC50 at 14 days,[7],4000 nM
same,"mtDNA, % of Control",HepG2 cells [8],86 % of Control
Cc1cn([C@H]2O[C@@H](COP(=O)(O)OP(=O)(O)OP(=O)(O)O)[C@H](O)[C@H]2F)c(=O)[nH]c1=O [L-FMAU-TP],IC50,[9]; [24],150 ± 50 nM
same,IC50,human DNA polymerase β [10],> 50000 nM
same,IC50,human DNA polymerase γ [11],> 50000 nM
Nc1ccn([C@@H]2C[C@@H](O)[C@H](COP(=O)(O)OP(=O)(O)OP(=O)(O)O)O2)c(=O)n1 [L-dC-TP],IC50,[9],1820 nM
same,IC50,human DNA polymerase β [12],> 100000 nM
same,IC50,human DNA polymerase γ [13],> 100000 nM
same,apparent intracellular half-life,HepG2 cells [14],15.5 ± 0.34 h
same,half-life,in vitro,15.5 h
"O=c1ccn([C@@H]2C[C@@H](O)[C@H](CO)O2)c(=O)[nH]1 [L-dU, β-L-2′-deoxyuridine]","share of drug excreted / recovered dose in urine, by analyte",[15],approximately 2.5%
"O=c1ccn([C@@H]2C[C@@H](O)[C@H](COP(=O)(O)OP(=O)(O)OP(=O)(O)O)O2)c(=O)[nH]1 [L-dU-TP, β-L-2′-deoxyuridine 5′-triphosphate]",IC50,[9],5260 nM
same,IC50,human DNA polymerase β [12],> 100000 nM
same,IC50,human DNA polymerase γ [13],> 100000 nM
same,intracellular metabolite level,"HepG2 cells [14]; 24 h, 10 μM",18.2 ± 1.0 µM
same,intracellular metabolite level,[16],43.5 ± 27 µM
Nc1ncnc2c1ncn2[C@@H]1CC[C@H](COP(=O)(O)OP(=O)(O)OP(=O)(O)O)O1 [L-ddA-TP],IC50,[9]; [24],2000 ± 300 nM
Nc1ccn([C@@H]2CS[C@H](COP(=O)(O)OP(=O)(O)OP(=O)(O)O)O2)c(=O)n1 [Lamivudine-TP],IC50,[9]; [24],500 ± 100 nM
same,IC50,human DNA polymerase β [10],1200 nM
same,IC50,human DNA polymerase γ [11],10 nM
"Cc1cn([C@H]2C[C@H](O)[C@@H](CO)O2)c(=O)[nH]c1=O [Thd, D-thymidine]",Vmax of phosphorylation,[6],1.26 nmol/min/mg protein
"Cc1cn([C@H]2C[C@H](N=[N+]=[N-])[C@@H](CO)O2)c(=O)[nH]c1=O [ZDV, zidovudine, reference compound]",IC50,[17],700 nM
same,IC50,[18],1800 nM
same,CC50 at 14 days,[7],14000 nM
same,"mtDNA, % of Control",HepG2 cells [8],119 % of Control
"Nc1ccn([C@H]2CC[C@@H](CO)O2)c(=O)n1 [ddC, zalcitabine, reference compound]",CC50 at 14 days,[7],20000 nM
"CC(C)[C@H](N)C(=O)OC[C@@H]1O[C@H](n2ccc(N)nc2=O)C[C@H]1OC(=O)[C@@H](N)C(C)C [dival-L-dC, 3′,5′-L-divaline ester of 2′-deoxy-β-L-cytidine]",P′ (B/A′),[19],1.80 × 10^−3 and 1.77 × 10^−3
same,administered oral dose recovered in urine,[20]; after 72 hours,31%
same,administered oral dose recovered in urine,[20]; within 8 hours,Approximately 26%
same,loss in body weight following the initial dose on Day 1,"[21]; 20 mg/kg oral, each animal",approximately 0.6 kg
same,BUN decrease at Day 17 compared to Day 1,"[21]; cumulative, all four monkeys",~43%
same,NOAEL,"[21]; single oral dose by gavage (escalation 20-2000 mg/kg), monkey",2000 mg/kg
same,plasma protein binding,[22],13.3%±2.6%
same,NOAEL,"[5]; 28 day oral, rat",< 500 mg/kg
same,Solubility (mol/L),"[2]; listed as 3′,5′-divalinyl ester hydrochloride of β-L-dC",more than 2.5 mol/L
same,conversion detected in the organic phase during log P experiment,[23],14%
same,share of the oral dose absorbed,[3],approximately 73%
same,share of the absorbed ester converted to L-dC,[3]; oral,more than 99%
same,% BA w/ L-dT,"[3]; oral, coadministered with 10 mg/kg L-dT",74.6 ± 9.9%
same,% BA (bioavailability of L-dC),"[3]; oral, listed as 3′,5′-divaline ester of L-dC",higher oral bioavailability than the parent L-dC
same,% BA (bioavailability of L-dC),"[3]; oral, listed as L-dC di-valine",72.7 ± 22.0%
